Results reported in ChEMBL document CHEMBL1153711, “Synthesis and antimycobacterial evaluation of novel 5,6-dimethoxy-1-oxo-2,5-dihydro-1H-2-indenyl-5,4-substituted phenyl methanone analogues” (Bioorg Med Chem Lett, 2009).
≈ marks a conversion by molar mass, not a printed value.

Test system: Mycobacterium tuberculosis
Experiment: Antimycobacterial activity against isoniazid-resistant Mycobacterium tuberculosis by agar dilution method
Assay type: functional

| SMILES | MIC [µM] |
| --- | --- |
| COc1cc2c(cc1OC)C(=O)C(C(=O)c1cc(OC)c(OC)c(OC)c1)C2 (stereo not drawn) | > 6.25 |
| COc1cc2c(cc1OC)C(=O)C(C(=O)c1ccc(C#N)cc1)C2 (stereo not drawn) | > 6.25 |
| COc1ccc(C(=O)C2Cc3cc(OC)c(OC)cc3C2=O)cc1 (stereo not drawn) | > 6.25 |
| COc1cc2c(cc1OC)C(=O)C(C(=O)c1ccc(F)cc1)C2 (stereo not drawn) | 0.1 (≈ 0.0314 µg/mL) |
| COc1ccc(C(=O)C2Cc3cc(OC)c(OC)cc3C2=O)cc1OC (stereo not drawn) | > 6.25 |
| COc1cc2c(cc1OC)C(=O)C(C(=O)c1c(Cl)cccc1Cl)C2 (stereo not drawn) | 4.96 (≈ 1.81 µg/mL) |
| NNC(=O)c1ccncc1 [ISONIAZID] | 11.6 (≈ 1.59 µg/mL) |
| COc1cc2c(cc1OC)C(=O)C(C(=O)c1ccc(Br)cc1)C2 (stereo not drawn) | 11.7 (≈ 4.41 µg/mL) |
| COc1cc2c(cc1OC)C(=O)C(C(=O)c1ccc(N(C)C)cc1)C2 (stereo not drawn) | 8.78 (≈ 2.98 µg/mL) |
| COc1cc2c(cc1OC)C(=O)C(C(=O)c1ccccc1)C2 (stereo not drawn) | 11.6 (≈ 3.43 µg/mL) |
| COc1cc2c(cc1OC)C(=O)C(C(=O)c1cccc([N+](=O)[O-])c1)C2 (stereo not drawn) | 8.72 (≈ 2.98 µg/mL) |
| COc1cc2c(cc1OC)C(=O)C(C(=O)c1ccc(Cl)cc1)C2 (stereo not drawn) | 8.2 (≈ 2.71 µg/mL) |
| COc1cc2c(cc1OC)C(=O)C(C(=O)c1ccccc1Cl)C2 (stereo not drawn) | 3.72 (≈ 1.23 µg/mL) |
